{"source": "patent US20200022957A1", "about": "“KINASE AND UBIQUITIN LIGASE INHIBITORS AND USES THEREOF” (ALDA S.R.L., priority 2015, published 2020)", "format_in_all_cases": "cell-based, human", "key": {"ATP7B H1069Q": {"tested_on": "ATP7B H1069Q", "assay": "Morphological assay of ATP7B H1069Q exit from ER to Golgi in HeLa cells (fluorescence microscopy)", "details": "HeLa cells expressing ATP7B H1069Q-GFP; 24 h", "method": "Cells were transfected with ATP7B-WT-GFP or ATP7B-H1069Q-GFP, incubated overnight with 200 μM BCS and/or drugs. Fixed cells were further labeled for TGN46 to mark and visualize the Golgi area under a confocal microscope. Under low copper conditions ATP7B-WT traffics to the Golgi from the ER, while ATP7B-H1069Q is retained within the ER. If the drug treatments induce the rescue of trafficking from the ER to the Golgi, the ATP7B-H1069Q-GFP fluorescence in the Golgi area increases. This is measured by quantifying (in 10 different microscopy fields in 100 cells) the increased in fluorescence of ATP7BWT-GFP or ATP7BH1069Q-GFP in the Golgi area (marked by TGN46) and normalizing this value to total cell fluorescence\nCFBE or HeLa cells (in case of ATP7B) were transfected with constructs encoding the indicated mutant proteins and treated with JNKi II for 48 h."}, "F508del-CFTR": {"tested_on": "F508del-CFTR", "assay": "F508del-CFTR proteostasis by western blotting (ER band B / Golgi-processed band C) in CFBE cells", "details": "for levels of band B and band C of F508del-CFTR: concentration series; for decrease in levels of F508del-CFTR: rapid, abolished by MLK3 downregulation", "method": "Cells were washed three times in ice-cold Dulbecco's phosphate-buffered saline, and lysed in RIPA buffer (150 mM NaCl, 1% Triton X-100, 0.5% deoxycholic acid, 0.1% SDS, 20 mM Tris-HCl, pH 7.4), supplemented with protease inhibitor cocktail and phosphatase inhibitors. The lysates were clarified by centrifugation at 15000×g for 15 min, and the supernatants were resolved by SDS-PAGE. BCA Protein Assay kit (Pierce) was used to quantitate protein levels before loading. The western blots were decorated with appropriate antibodies and developed using ECL. The blots were then exposed to x-ray films and exposure time was varied to obtain optimal signal. The x-ray films were then scanned and the bands were quantitated using ImageJ gel-analysis tool. The protein concentration and the exposures used for quantitation of the blots were optimized to be in a linear range of detection.\nInventors then turned to experimental validation of the role of the CORE genes in the regulation of F508del-CFTR proteostasis. Experiments were carried out using a characterised biochemical assay that detects both the amount of core-glycosylated CFTR trapped in the ER (band B with Western blotting) and the amount of CFTR fully glycosylated in the Golgi (most of which presumably resides at the PM; band C with Western blotting)."}, "ATP7BH1069Q": {"tested_on": "ATP7BH1069Q", "assay": "Immunofluorescence assay for correction of ATP7B: cells with ATP7BH1069Q signal in the ER, HeLa cells", "details": "24 h, SB202190 5 μM, VX-745 1 μM, SP600125 2 μM, Oxozeaenol 5 μM, 100 μM CuSO4 2 h", "method": "(A) HeLa cells were infected with Ad-ATP7BWT-GFP (Chesi et al., 2016) or Ad-ATP7BH1069Q-GFP, incubated overnight with 200 μM BCS, and incubated for an additional 2 h with 100 μM CuSO4. In response to Cu, ATP7BWT traffics from the Golgi to PM and vesicle, while ATP7BH1069Q are retained within the ER under high Cu conditions. Addition of p38 inhibitor SB202190 (5 μM), VX-745(1 μM), JNK inhibitor SP600125 (2 μM) and Oxozeaenol (5 μM) (as indicated in corresponding panels) to the cells 24 h corrects ATP7BH1069Q from the ER to PM and vesicles (arrows) (B) Cells were treated as in panel A. The percentage of the cells (average±SD, n=50 fields) with an ATP7B signal in the ER, were calculated.\nCells were fixed with 4% paraformaldehyde in 0.2 M HEPES for 10 mins, permeabilized, labeled with primary and secondary antibodies, and examined with a ZEISS LSM 700 confocal microscope equipped with a 63×1.4 numerical aperture oil objective. The cells were scored based on the disappearance of ATP7B from the ER."}}, "data": [{"molecule": "C=C(c1ccc(C(=O)O)cc1)c1cc2c(cc1C)C(C)(C)CCC2(C)C", "note": "[Bexarotene]", "values": [{"measurement": "rescue of ATP7B H1069Q localization (ER exit to the Golgi compartment)", "setting": "ATP7B H1069Q", "result": "potently rescue"}, {"measurement": "levels of band B and band C of F508del-CFTR", "setting": "F508del-CFTR; 48 h", "result": "robust increases"}]}, {"molecule": "CC(=O)Nc1ccc(C(=O)NC(C)(C)C)cc1", "note": "[CPI-1189]", "values": [{"measurement": "rescue of ATP7B H1069Q localization (ER exit to the Golgi compartment)", "setting": "ATP7B H1069Q", "result": "potently rescue"}]}, {"molecule": "C=C(C)[C@@H]1CCC(C)=C[C@H]1c1c(O)cc(CCCCC)cc1O", "note": "[Cannabidiol]", "values": [{"measurement": "rescue of ATP7B H1069Q localization (ER exit to the Golgi compartment)", "setting": "ATP7B H1069Q", "result": "potently rescue"}]}, {"molecule": "CC(O)C(=O)O.CN1CCN(c2ccc3nc(-c4c(N)c5c(F)cccc5[nH]c4=O)[nH]c3c2)CC1", "note": "[Dovitinib lactate]", "values": [{"measurement": "levels of band B and band C of F508del-CFTR", "setting": "F508del-CFTR; 48 h", "result": "robust increases"}]}, {"molecule": "Cc1cc(Nc2cc(N3CCN(C)CC3)nc(/C=C/c3ccccc3)n2)n[nH]1", "note": "[ENMD-2076]", "values": [{"measurement": "rescue of ATP7B H1069Q localization (ER exit to the Golgi compartment)", "setting": "ATP7B H1069Q", "result": "potently rescue"}]}, {"molecule": "Fc1ccc(C(c2ccc(F)cc2)N2CCN(C/C=C/c3ccccc3)CC2)cc1", "note": "[Flunarizine]", "values": [{"measurement": "correction of F508del-CFTR (levels of band C)", "setting": "F508del-CFTR; 48 h", "result": "increased"}]}, {"molecule": "OO", "note": "[H2O2]", "values": [{"measurement": "F508del-CFTR levels", "setting": "F508del-CFTR; H2O2 at non-toxic concentrations, within a few minutes", "result": "marked drop"}]}, {"molecule": "N#Cc1c(NC(=O)c2cccc3ccccc23)sc2c1CCCC2", "note": "[JNKi IX]", "values": [{"measurement": "levels of band B and band C of F508del-CFTR", "setting": "F508del-CFTR; 48 h", "result": "robust increases"}]}, {"molecule": "O=[N+]([O-])c1cnc(Sc2nc3ccccc3s2)s1", "note": "[JNKi XI]", "values": [{"measurement": "levels of band B and band C of F508del-CFTR", "setting": "F508del-CFTR; 48 h", "result": "robust increases"}]}, {"molecule": "COC(=O)[C@@]1(O)C[C@H]2O[C@]1(C)n1c3ccccc3c3c4c(c5c6ccccc6n2c5c31)C(=O)NC4", "note": "[K252a]", "values": [{"measurement": "correction of F508del-CFTR (levels of band C)", "setting": "F508del-CFTR; 48 h", "result": "no clear effects"}]}, {"molecule": "Cc1ccc(Nc2nccc(N(C)c3ccc4c(C)n(C)nc4c3)n2)cc1S(N)(=O)=O", "note": "[Pazopanib]", "values": [{"measurement": "levels of band B and band C of F508del-CFTR", "setting": "F508del-CFTR; 48 h", "result": "robust increases"}]}, {"molecule": "Oc1ccc(-c2nc(-c3ccncc3)c(-c3ccc(F)cc3)[nH]2)cc1", "note": "[SB202190]", "values": [{"measurement": "percentage of the cells exhibiting ATP7BH1069Q in the ER", "setting": "ATP7BH1069Q", "result": "reduced"}]}, {"molecule": "O=C(O)c1ccc2c3c1cccc3c(=O)n1c3ccccc3nc21", "note": "[STO-609]", "values": [{"measurement": "correction of F508del-CFTR (levels of band C)", "setting": "F508del-CFTR; 48 h", "result": "did not show any effect"}]}, {"molecule": "Cc1ccc(NC(=O)C2(c3ccc4c(c3)OC(F)(F)O4)CC2)nc1-c1cccc(C(=O)O)c1", "note": "[VX-809]", "values": [{"measurement": "level of ER-localised band B of F508del-CFTR", "setting": "F508del-CFTR; 48 h", "result": "limited increase"}, {"measurement": "increase of band C levels over control", "setting": "F508del-CFTR; VX-809 as reference for correction", "result": "4-5 fold"}]}, {"molecule": "O=C1c2c(O)ccc(O)c2C(=O)c2c(NCCNCCO)ccc(NCCNCCO)c21", "note": "[mitoxantrone]", "values": [{"measurement": "levels of band B and band C of F508del-CFTR", "setting": "F508del-CFTR; 48 h", "result": "potently increase"}]}, {"molecule": "COc1ccc(CCN(C)CCCC(C#N)(c2ccc(OC)c(OC)c2)C(C)C)cc1OC", "note": "(centres unmarked) [verapamil]", "values": [{"measurement": "correction of F508del-CFTR (levels of band C)", "setting": "F508del-CFTR; 48 h", "result": "did not show any effect"}]}, {"molecule": "TGF-β", "values": [{"measurement": "decrease in levels of F508del-CFTR", "setting": "F508del-CFTR", "result": 50, "unit": "%"}]}, {"molecule": "TNF-α", "values": [{"measurement": "decrease in levels of F508del-CFTR", "setting": "F508del-CFTR", "result": 50, "unit": "%"}]}]}
